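Following 48 hours of exposure in 96-well plates, responses at five concentrations were used to interpolate endpoints linearly. At the GI50, growth is halved. TGI denotes the concentration required for complete inhibition of growth.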
How the values were obtained:
Experiment in all cases: NCI anticancer screen, dose series, 48 h
[1] = system: NCI-H23 lung
[2] = system: T-47D breast
[3] = system: OVCAR-3 ovarian
[4] = system: SF-268 CNS
[5] = system: SN12C renal
[6] = system: HL-60(TB) leukemia
[7] = system: HS 578T breast
[8] = system: KM12 colon
[9] = system: NCI-H226 lung
[10] = system: OVCAR-4 ovarian
[11] = system: HCC-2998 colon
[12] = system: BT-549 breast
[13] = system: SK-OV-3 ovarian
[14] = system: SF-295 CNS
[15] = system: SW-620 colon
[16] = system: SNB-19 CNS
[17] = system: HCT-15 colon
[18] = system: NCI/ADR-RES ovarian
[19] = system: ACHN renal
[20] = system: LOX IMVI melanoma
[21] = system: HCT-116 colon
[22] = system: UO-31 renal
[23] = system: SR leukemia
[24] = system: COLO 205 colon
[25] = system: TK-10 renal
[26] = system: M14 melanoma
[27] = system: EKVX NSCLC
[28] = system: SK-MEL-2 melanoma
[29] = system: A498 renal
[30] = system: DU-145 prostate
[31] = system: HT29 colon
[32] = system: HOP-62 NSCLC
[33] = system: SK-MEL-5 melanoma
[34] = system: SF-539 CNS
[35] = system: HOP-92 NSCLC
[36] = system: MDA-MB-231 breast
[37] = system: RXF 393 renal
[38] = system: CCRF-CEM leukemia
[39] = system: SNB-75 CNS
[40] = system: A549 NSCLC
[41] = system: PC-3 prostate
[42] = system: OVCAR-5 ovarian
[43] = system: UACC-257 melanoma
[44] = system: OVCAR-8 ovarian
[45] = system: NCI-H460 lung
[46] = system: CAKI-1 renal
[47] = system: MDA-MB-435
[48] = system: K-562 leukemia
[49] = system: MCF7 breast
[50] = system: U251 CNS
[51] = system: RPMI-8226 leukemia
[52] = system: UACC-62 melanoma
[53] = system: 786-0 renal
[54] = system: IGROV1 ovarian
[55] = system: MOLT-4 leukemia
[56] = system: NCI-H522 lung
[57] = system: SK-MEL-28 melanoma
[58] = system: MALME-3M melanoma

Compound: Cn1ccnc1C(=O)/C=C/c1ccc(C(=O)Nc2ccc(F)cc2)cc1
- GI50 [1]: 1.3 µM
- TGI [1]: 5.36 µM
- GI50 [2]: 1.24 µM
- TGI [2]: > 50 µM
- GI50 [3]: 0.812 µM
- TGI [3]: 4.28 µM
- GI50 [4]: 1.91 µM
- TGI [4]: > 50 µM
- GI50 [5]: 1.37 µM
- TGI [5]: > 50 µM
- GI50 [6]: 0.933 µM
- TGI [6]: 3.12 µM
- GI50 [7]: 1.66 µM
- TGI [7]: > 50 µM
- GI50 [8]: 0.481 µM
- TGI [8]: 2 µM
- GI50 [9]: 1.51 µM
- TGI [9]: > 12.4 µM
- GI50 [10]: 1.38 µM
- TGI [10]: > 50 µM
- GI50 [11]: 0.915 µM
- TGI [11]: 2 µM
- GI50 [12]: 0.667 µM
- TGI [12]: 4.22 µM
- GI50 [13]: 2.55 µM
- TGI [13]: > 50 µM
- GI50 [14]: 1.82 µM
- TGI [14]: > 37.1 µM
- GI50 [15]: 0.223 µM
- TGI [15]: 7.97 µM
- GI50 [16]: 1.36 µM
- TGI [16]: 6.31 µM
- GI50 [17]: 0.274 µM
- TGI [17]: 2.5 µM
- GI50 [18]: 1.25 µM
- TGI [18]: > 50 µM
- GI50 [19]: 1.01 µM
- TGI [19]: 2.11 µM
- GI50 [20]: 0.52 µM
- TGI [20]: 1.35 µM
- GI50 [21]: 0.343 µM
- TGI [21]: 1.12 µM
- GI50 [22]: 0.814 µM
- TGI [22]: 2.69 µM
- GI50 [23]: 0.171 µM
- TGI [23]: 3.11 µM
- GI50 [24]: 1.47 µM
- TGI [24]: 5.42 µM
- GI50 [25]: 1.51 µM
- TGI [25]: 7.49 µM
- GI50 [26]: 1.16 µM
- TGI [26]: 3.81 µM
- GI50 [27]: 2.2 µM
- TGI [27]: 20.8 µM
- GI50 [28]: 5.66 µM
- TGI [28]: 39.7 µM
- GI50 [29]: 1.05 µM
- TGI [29]: 3.53 µM
- GI50 [30]: 1.61 µM
- TGI [30]: > 50 µM
- GI50 [31]: 0.877 µM
- TGI [31]: > 50 µM
- GI50 [32]: 1.38 µM
- TGI [32]: > 16.4 µM
- GI50 [33]: 1.49 µM
- TGI [33]: 4.63 µM
- GI50 [34]: 0.851 µM
- TGI [34]: 1.79 µM
- GI50 [35]: 1.31 µM
- TGI [35]: > 41 µM
- GI50 [36]: 1.71 µM
- TGI [36]: > 50 µM
- GI50 [37]: 0.78 µM
- TGI [37]: 1.64 µM
- GI50 [38]: 0.853 µM
- TGI [38]: > 50 µM
- GI50 [39]: 0.919 µM
- TGI [39]: 16.8 µM
- GI50 [40]: 1.41 µM
- TGI [40]: > 50 µM
- GI50 [41]: 1.25 µM
- TGI [41]: > 50 µM
- GI50 [42]: 1.54 µM
- TGI [42]: 26.5 µM
- GI50 [43]: 3.14 µM
- TGI [43]: > 50 µM
- GI50 [44]: 1.49 µM
- TGI [44]: > 50 µM
- GI50 [45]: 1.06 µM
- TGI [45]: 2.66 µM
- GI50 [46]: 1.07 µM
- TGI [46]: > 50 µM
- GI50 [47]: 1.59 µM
- TGI [47]: 11 µM
- GI50 [48]: 0.163 µM
- TGI [48]: > 50 µM
- GI50 [49]: 0.472 µM
- TGI [49]: > 50 µM
- GI50 [50]: 0.747 µM
- TGI [50]: 2.71 µM
- GI50 [51]: 0.224 µM
- TGI [51]: 1.54 µM
- GI50 [52]: 1.37 µM
- TGI [52]: 4.86 µM
- GI50 [53]: 1.14 µM
- TGI [53]: 3.14 µM
- GI50 [54]: 1.24 µM
- TGI [54]: 4.44 µM
- GI50 [55]: 1.48 µM
- TGI [55]: > 50 µM
- GI50 [56]: 1.17 µM
- TGI [56]: 4.7 µM
- GI50 [57]: 1.8 µM
- TGI [57]: 9.65 µM
- GI50 [58]: 3.27 µM
- TGI [58]: > 50 µM
